Experimental data as given in ChEMBL document CHEMBL1201862, “PubChem BioAssay data set” (2004).
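Exposure lasted 48 hours, with cells grown in 96-well plates and compounds tested at five concentrations. GI50 = concentration required for 50% inhibition of growth.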 Calls of active or inactive are those of the source. Cut-off read from the data, not from the text of the source: active = GI50 up to about 1.1 µM and inactive = higher.

Key:
Experiment in all cases: DTP human tumour cell line panel, 48 h
HOP-62 = system: HOP-62
K562 = system: K562
786-0 = system: 786-0
M14 = system: M14
KM12 = system: KM12
DU-145 = system: DU-145
LOX IMVI = system: LOX IMVI
UACC-62 = system: UACC-62
A549 = system: A549
Malme-3M = system: Malme-3M
T47D = system: T47D
MDA-MB-231 = system: MDA-MB-231
OVCAR-4 = system: OVCAR-4
RPMI-8226 = system: RPMI-8226
HOP-92 = system: HOP-92
MCF7 = system: MCF7
ACHN = system: ACHN
SW-620 = system: SW-620
SF-539 = system: SF-539
HL-60 = system: HL-60

Measured: GI50

O=[As](O)(O)c1ccc(NCc2ccccc2)cc1
inactive: HOP-62 > 100 µM | K562 > 100 µM | 786-0 > 100 µM | M14 > 100 µM | KM12 > 100 µM | DU-145 > 100 µM | LOX IMVI > 100 µM | UACC-62 > 100 µM | A549 > 100 µM | Malme-3M > 100 µM | T47D > 100 µM | MDA-MB-231 > 100 µM | OVCAR-4 > 100 µM | RPMI-8226 > 100 µM | HOP-92 > 100 µM | MCF7 > 100 µM | ACHN > 100 µM

CCCCC/C=C1\CC(CO)(COC(=O)CC(C(C)C)C(C)C)OC1=O (centres undefined)
inactive: HOP-62 6 µM | K562 6.84 µM | SW-620 29.3 µM | 786-0 12.1 µM | M14 14.6 µM | KM12 11.4 µM | DU-145 15.6 µM | UACC-62 19.4 µM | A549 8.89 µM | Malme-3M 15.3 µM | T47D 23.1 µM | MDA-MB-231 17.9 µM | OVCAR-4 30 µM | HOP-92 3.66 µM | MCF7 21.6 µM | ACHN 13 µM

C[C@H](O)C1CC(Cn2nnc3c(N)ncnc32)C1(C)C (some centres undefined)
active: K562 < 0.01 µM
inactive: HOP-62 > 100 µM | SW-620 > 100 µM | 786-0 > 100 µM | M14 > 100 µM | KM12 > 100 µM | DU-145 > 100 µM | LOX IMVI > 100 µM | UACC-62 5.36 µM | A549 > 100 µM | SF-539 > 100 µM | T47D > 100 µM | MDA-MB-231 > 100 µM | OVCAR-4 > 100 µM | HOP-92 > 100 µM | MCF7 > 100 µM | ACHN > 100 µM

Cn1c(=O)c2sc3cc4c(cc3c2c2ccccc21)sc1c(=O)n(C)c2ccccc2c14
inactive: HOP-62 19.9 µM | K562 > 10 µM | SW-620 > 100 µM | 786-0 31.8 µM | M14 88.1 µM | HL-60 > 100 µM | KM12 > 100 µM | DU-145 > 100 µM | UACC-62 > 100 µM | A549 89.3 µM | SF-539 76 µM | Malme-3M 81.7 µM | T47D > 100 µM | MDA-MB-231 16.6 µM | OVCAR-4 > 100 µM | RPMI-8226 > 100 µM | HOP-92 23.9 µM | MCF7 > 100 µM | ACHN 19.2 µM

CC(C)(C)c1cc(COc2cc(COc3ccc(-c4c5c(nc6c4CCc4ccc(-c7c8ccccc8nc8ccccc78)cc4-6)-c4cc(-c6c7ccccc7nc7ccccc67)ccc4CC5)cc3)cc(OCc3cc(C(C)(C)C)cc(C(C)(C)C)c3)c2)cc(C(C)(C)C)c1
inactive: HOP-62 > 100 µM | K562 > 100 µM | 786-0 > 100 µM | M14 > 100 µM | KM12 > 100 µM | DU-145 > 100 µM | UACC-62 > 100 µM | A549 > 100 µM | Malme-3M 89.3 µM | T47D > 100 µM | MDA-MB-231 > 100 µM | OVCAR-4 > 100 µM | RPMI-8226 > 100 µM | HOP-92 > 100 µM | MCF7 > 100 µM | ACHN > 100 µM

C[C@H]1OC(=O)[C@@H]2N=NN(Cc3ccccc3)[C@H]12
inactive: HOP-62 > 100 µM | K562 > 100 µM | SW-620 > 100 µM | 786-0 > 100 µM | M14 > 100 µM | KM12 > 100 µM | DU-145 > 100 µM | UACC-62 > 100 µM | A549 > 100 µM | SF-539 > 100 µM | Malme-3M > 100 µM | T47D > 100 µM | MDA-MB-231 > 100 µM | OVCAR-4 > 100 µM | RPMI-8226 > 100 µM | HOP-92 > 100 µM | MCF7 > 100 µM | ACHN > 100 µM

COP(=O)(Cc1ccc(/C=C/C#N)o1)OC
inactive: HOP-62 > 100 µM | K562 > 100 µM | SW-620 > 10 µM | 786-0 > 100 µM | M14 > 100 µM | HL-60 > 100 µM | KM12 > 100 µM | DU-145 > 100 µM | UACC-62 > 100 µM | A549 > 100 µM | SF-539 > 100 µM | Malme-3M 47.2 µM | T47D > 100 µM | MDA-MB-231 > 100 µM | OVCAR-4 > 100 µM | RPMI-8226 > 100 µM | HOP-92 > 100 µM | MCF7 > 100 µM

CCN(CC)P(=O)(c1ccc2c(c1)OCCOCCOCCOCCO2)N(CC)CC
inactive: HOP-62 > 100 µM | K562 > 100 µM | SW-620 > 100 µM | 786-0 > 100 µM | M14 > 100 µM | HL-60 > 100 µM | KM12 > 100 µM | DU-145 > 100 µM | LOX IMVI > 100 µM | UACC-62 > 100 µM | A549 > 100 µM | SF-539 > 100 µM | Malme-3M > 100 µM | T47D > 100 µM | MDA-MB-231 > 100 µM | RPMI-8226 > 100 µM | MCF7 > 100 µM | ACHN > 100 µM

COc1ccc(/C=N/n2c(C)n[nH]c2=O)cc1
inactive: HOP-62 > 100 µM | K562 > 100 µM | SW-620 > 100 µM | 786-0 > 100 µM | M14 > 100 µM | KM12 > 100 µM | DU-145 > 100 µM | UACC-62 > 100 µM | A549 > 100 µM | SF-539 > 100 µM | Malme-3M > 100 µM | T47D > 100 µM | MDA-MB-231 > 100 µM | OVCAR-4 42.8 µM | RPMI-8226 > 100 µM | MCF7 > 100 µM | ACHN > 100 µM

CC1=C/C(=N\OCC(=O)O)CC(c2ccc(C(C)C)cc2)C1 (centres undefined)
inactive: K562 32.3 µM | SW-620 34.3 µM | 786-0 65.8 µM | M14 35.2 µM | HL-60 26.5 µM | KM12 48.5 µM | DU-145 > 100 µM | UACC-62 33.7 µM | A549 60.3 µM | SF-539 93.1 µM | Malme-3M 63.8 µM | T47D 65.3 µM | MDA-MB-231 54.8 µM | RPMI-8226 23.2 µM | HOP-92 29.5 µM | MCF7 52.5 µM

O=C1c2c(O)cccc2Cc2cc(CO)cc(O)c21
inactive: HOP-62 3.01 µM | K562 1.99 µM | SW-620 4.06 µM | 786-0 3.21 µM | M14 2.31 µM | DU-145 3.86 µM | UACC-62 2.09 µM | A549 2.92 µM | Malme-3M 2.21 µM | T47D 2.96 µM | MDA-MB-231 2.3 µM | HOP-92 1.61 µM | MCF7 2.58 µM | ACHN 2.94 µM
active: HL-60 0.684 µM | OVCAR-4 1.07 µM | RPMI-8226 0.743 µM
